Measured values reported in patent publication US9708314B2, “Heterocyclic amide compound” (NISSAN CHEMICAL INDUSTRIES, LTD., priority 2013, dated 2017).

Assays:
Assay type in all cases: in vivo
[1] = system: Echinochloa oryzacola Vasing.; test: Test Example 2: herbicidal activity, application during weed generation in submerged conditions; conditions: Eighteenth Table; application herbicide amount 320 g/ha
In short: (§1)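 Post-emergence application under submerged conditions: water-diluted emulsion dosed onto the water surface (g/ha) when weeds reach one- to two-leaf stage. Soil flooded to 4 cm; greenhouse 25–30 °C. Herbicidal ratio graded in six classes, 0 (≤5%) to 5 (≥90%), at three weeks.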

Monochoria vaginalis = test: as above; conditions: Eighteenth Table; application herbicide amount 320 g/ha
In short: as §1

Scirpus juncoides = test: as above; conditions: Eighteenth Table; application herbicide amount 320 g/ha
In short: as §1

Abutilon theophrasti = test: Test Example 4: herbicidal effect by application to foliage (diluvial soil, plastic box); conditions: foliage application, 320 g/ha
In short: (§2)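 Emulsion-formulated compound, diluted to a predetermined g/ha dose, applied by small sprayer to leaves and stems of 14-day-old seedlings grown in sterilized diluvial soil. Effect rated on 0–5 herbicidal-ratio scale three weeks on.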

Alopecurus myosuroides = test: as above; conditions: foliage application, 320 g/ha
In short: as §2

Amaranthus retroflexus = test: as above; conditions: foliage application, 320 g/ha
In short: as §2

Apera spica-venti. = test: as above; conditions: foliage application, 320 g/ha
In short: as §2

Avena fatua = test: as above; conditions: foliage application, 320 g/ha
In short: as §2

Chenopodium album = test: as above; conditions: foliage application, 320 g/ha
In short: as §2

Digitaria ciliaris = test: as above; conditions: foliage application, 320 g/ha
In short: as §2

[2] = system: Echinochloa crus-galli var. crus-galli; test: as above; conditions: foliage application, 320 g/ha
In short: as §2

Galium spurium = test: as above; conditions: foliage application, 320 g/ha
In short: as §2

Lolium multiflorum Lam. = test: as above; conditions: foliage application, 320 g/ha
In short: as §2

Setaria viridis = test: as above; conditions: foliage application, 320 g/ha
In short: as §2

Stellaria media = test: as above; conditions: foliage application, 320 g/ha
In short: as §2

Veronica persica = test: as above; conditions: foliage application, 320 g/ha
In short: as §2

[3] = system: Beta vulgaris ssp. vulgaris; test: Test Example 4: effect on crop by application to foliage (diluvial soil, plastic box); conditions: foliage application, 320 g/ha
In short: as §2

Brassica campestris L. = test: as above; conditions: foliage application, 320 g/ha
In short: as §2

Glycine max = test: as above; conditions: foliage application, 320 g/ha
In short: as §2

Triticum aestivum = test: as above; conditions: foliage application, 320 g/ha
In short: as §2

Zea mays = test: as above; conditions: foliage application, 320 g/ha
In short: as §2

[4] = system: directly sowed Oryza sativa; test: as above; conditions: foliage application, 320 g/ha
In short: as §2

Row | SMILES | A (Echinochloa oryzicola Vasing.) herbicidal ratio grade [1] | C (Monochoria vaginalis) herbicidal ratio grade (Monochoria vaginalis) | B (Scirpus juncoides) herbicidal ratio grade (Scirpus juncoides) | M (Abutilon theophrasti) herbicidal effect grade (Abutilon theophrasti) | J (Alopecurus myosuroides) herbicidal effect grade (Alopecurus myosuroides) | N (Amaranthus retroflexus) herbicidal effect grade (Amaranthus retroflexus) | L (Apera spica-venti.) herbicidal effect grade (Apera spica-venti.) | I (Avena fatua) herbicidal effect grade (Avena fatua) | O (Chenopodium album) herbicidal effect grade (Chenopodium album) | F (Digitaria ciliaris) herbicidal effect grade (Digitaria ciliaris) | H (Echinochloa crus-galli var. crus-galli) herbicidal effect grade [2] | Q (Galium spurium) herbicidal effect grade (Galium spurium) | K (Lolium multiflorum Lam.) herbicidal effect grade (Lolium multiflorum Lam.) | G (Setaria viridis) herbicidal effect grade (Setaria viridis) | P (Stellaria media) herbicidal effect grade (Stellaria media) | R (Veronica persica) herbicidal effect grade (Veronica persica) | f (Beta vulgaris ssp. vulgaris) effect on crop grade [3] | g (Brassica campestris L.) effect on crop grade (Brassica campestris L.) | c (Glycine max) effect on crop grade (Glycine max) | e (Triticum aestivum) effect on crop grade (Triticum aestivum) | further results
1 | CC(C)c1nnc2c(C(=O)Nc3nnnn3C)ccc(C(F)F)n12 [2-047] | 3 (Herbicidal ratio of 40% or more and less than 70%) | 4 (Herbicidal ratio of 70% or more and less than 90%) | 5 (Herbicidal ratio of 90% or more (almost completely withered)) | 5 (Herbicidal ratio of 90% or more (almost completely withered)) | 1 (Herbicidal ratio of 5% or more and less than 20%) | 5 (Herbicidal ratio of 90% or more (almost completely withered)) | 3 (Herbicidal ratio of 40% or more and less than 70%) | 3 (Herbicidal ratio of 40% or more and less than 70%) | 5 (Herbicidal ratio of 90% or more (almost completely withered)) | 5 (Herbicidal ratio of 90% or more (almost completely withered)) | 5 (Herbicidal ratio of 90% or more (almost completely withered)) | 3 (Herbicidal ratio of 40% or more and less than 70%) | 1 (Herbicidal ratio of 5% or more and less than 20%) | 3 (Herbicidal ratio of 40% or more and less than 70%) | 4 (Herbicidal ratio of 70% or more and less than 90%) | 5 (Herbicidal ratio of 90% or more (almost completely withered)) | 5 (Herbicidal ratio of 90% or more (almost completely withered)) | 3 (Herbicidal ratio of 40% or more and less than 70%) | 0 (Herbicidal ratio of 5% or less (almost no effect)) | 3 (Herbicidal ratio of 40% or more and less than 70%) | b (Zea mays) effect on crop grade (Zea mays): 3 (Herbicidal ratio of 40% or more and less than 70%); d (directly sowed Oryza sativa) effect on crop grade [4]: 3 (Herbicidal ratio of 40% or more and less than 70%)
2 | CN(C)c1nnc2c(C(=O)Nc3nnnn3C)ccc(C(F)(F)F)n12 [2-051] | 5 (Herbicidal ratio of 90% or more (almost completely withered)) | 5 (Herbicidal ratio of 90% or more (almost completely withered)) | 5 (Herbicidal ratio of 90% or more (almost completely withered)) | 5 (Herbicidal ratio of 90% or more (almost completely withered)) | 4 (Herbicidal ratio of 70% or more and less than 90%) | 5 (Herbicidal ratio of 90% or more (almost completely withered)) | 5 (Herbicidal ratio of 90% or more (almost completely withered)) | 5 (Herbicidal ratio of 90% or more (almost completely withered)) | 5 (Herbicidal ratio of 90% or more (almost completely withered)) | 5 (Herbicidal ratio of 90% or more (almost completely withered)) | 5 (Herbicidal ratio of 90% or more (almost completely withered)) | 5 (Herbicidal ratio of 90% or more (almost completely withered)) | 4 (Herbicidal ratio of 70% or more and less than 90%) | 5 (Herbicidal ratio of 90% or more (almost completely withered)) | 5 (Herbicidal ratio of 90% or more (almost completely withered)) | 5 (Herbicidal ratio of 90% or more (almost completely withered)) | 5 (Herbicidal ratio of 90% or more (almost completely withered)) | 4 (Herbicidal ratio of 70% or more and less than 90%) | 2 (Herbicidal ratio of 20% or more and less than 40%) | 4 (Herbicidal ratio of 70% or more and less than 90%) | b (Zea mays) effect on crop grade (Zea mays): 4 (Herbicidal ratio of 70% or more and less than 90%); d (directly sowed Oryza sativa) effect on crop grade [4]: 4 (Herbicidal ratio of 70% or more and less than 90%)
3 | CSCCc1nnc2c(C(=O)Nc3nnnn3C)ccc(C(F)(F)F)n12 [2-057] | 4 (Herbicidal ratio of 70% or more and less than 90%) | 4 (Herbicidal ratio of 70% or more and less than 90%) | 4 (Herbicidal ratio of 70% or more and less than 90%) | 5 (Herbicidal ratio of 90% or more (almost completely withered)) | 4 (Herbicidal ratio of 70% or more and less than 90%) | 5 (Herbicidal ratio of 90% or more (almost completely withered)) | 4 (Herbicidal ratio of 70% or more and less than 90%) | 4 (Herbicidal ratio of 70% or more and less than 90%) | 5 (Herbicidal ratio of 90% or more (almost completely withered)) | 5 (Herbicidal ratio of 90% or more (almost completely withered)) | 5 (Herbicidal ratio of 90% or more (almost completely withered)) | 4 (Herbicidal ratio of 70% or more and less than 90%) | 4 (Herbicidal ratio of 70% or more and less than 90%) | 5 (Herbicidal ratio of 90% or more (almost completely withered)) | 5 (Herbicidal ratio of 90% or more (almost completely withered)) | 5 (Herbicidal ratio of 90% or more (almost completely withered)) | 5 (Herbicidal ratio of 90% or more (almost completely withered)) | 5 (Herbicidal ratio of 90% or more (almost completely withered)) | 2 (Herbicidal ratio of 20% or more and less than 40%) | 4 (Herbicidal ratio of 70% or more and less than 90%) | b (Zea mays) effect on crop grade (Zea mays): 4 (Herbicidal ratio of 70% or more and less than 90%); d (directly sowed Oryza sativa) effect on crop grade [4]: 5 (Herbicidal ratio of 90% or more (almost completely withered))
4 | Cn1nnnc1NC(=O)c1ccc(C(F)(F)F)n2c(CC[S+](C)[O-])nnc12 (stereo not shown) [2-058] | 4 (Herbicidal ratio of 70% or more and less than 90%) | 4 (Herbicidal ratio of 70% or more and less than 90%) | 4 (Herbicidal ratio of 70% or more and less than 90%) | 5 (Herbicidal ratio of 90% or more (almost completely withered)) | 4 (Herbicidal ratio of 70% or more and less than 90%) | 5 (Herbicidal ratio of 90% or more (almost completely withered)) | 4 (Herbicidal ratio of 70% or more and less than 90%) | 5 (Herbicidal ratio of 90% or more (almost completely withered)) | 5 (Herbicidal ratio of 90% or more (almost completely withered)) | 5 (Herbicidal ratio of 90% or more (almost completely withered)) | 5 (Herbicidal ratio of 90% or more (almost completely withered)) | 5 (Herbicidal ratio of 90% or more (almost completely withered)) | 4 (Herbicidal ratio of 70% or more and less than 90%) | 5 (Herbicidal ratio of 90% or more (almost completely withered)) | 5 (Herbicidal ratio of 90% or more (almost completely withered)) | 5 (Herbicidal ratio of 90% or more (almost completely withered)) | 5 (Herbicidal ratio of 90% or more (almost completely withered)) | 5 (Herbicidal ratio of 90% or more (almost completely withered)) | 3 (Herbicidal ratio of 40% or more and less than 70%) | 5 (Herbicidal ratio of 90% or more (almost completely withered)) | b (Zea mays) effect on crop grade (Zea mays): 5 (Herbicidal ratio of 90% or more (almost completely withered)); d (directly sowed Oryza sativa) effect on crop grade [4]: 5 (Herbicidal ratio of 90% or more (almost completely withered))
